Reference: patent US20170119844A1, “HEMOSTATIC PHARMACEUTICAL COMPOSITION” (OTSUKA CHEMICAL CO., LTD., priority 2014, published 2017)

Experiment: Solubility in ultrapure water when preparing peptide solutions
Type: physicochemical

CC(=O)N[C@@H](CCCNC(=N)N)C(=O)N[C@@H](C)C(=O)N[C@@H](CC(=O)O)C(=O)N[C@@H](C)C(=O)N[C@@H](CCCNC(=N)N)C(=O)N[C@@H](C)C(=O)N[C@@H](CC(=O)O)C(=O)N[C@@H](C)C(=O)N[C@@H](CCCNC(=N)N)C(=O)N[C@@H](C)C(=O)N[C@@H](CC(=O)O)C(=O)N[C@@H](C)C(=O)N[C@@H](CCCNC(=N)N)C(=O)N[C@@H](C)C(=O)N[C@@H](CC(=O)O)C(=O)N[C@@H](C)C(N)=O [(RADA)4]
solubility in water: did not completely dissolve at a concentration of 2% by weight or higher
